Laboratory results: patent publication US20210308077A1, “COMBINATIONS INCLUDING BETA-ADRENORECEPTOR AGONISTS FOR TREATMENT OF PARKINSON`S DISEASE AND MOVEMENT DISORDERS” (The Brigham and Women`s Hospital, Inc., priority 2017, published 2021)

How the values were obtained:
[1] = tested on: SNCA mRNA; assay: endogenous SNCA mRNA expression in SK-N-MC neuroblastoma cells (screening, replication, confirmation; qPCR); type: cell-based, human
Experimental: Human neuroblastoma SK-N-MC cells were acquired from American Type Culture Collection (ATCC). Cells were cultured at 37° C. in 5% CO2 in DMEM/F12 supplemented with 10% fetal bovine serum (FBS) and 100 units per ml penicillin and streptomycin. The drug library was obtained from the Laboratory for Drug Discovery in Neurodegeneration (LDDN), Harvard NeuroDiscovery Center, Boston, Mass. The drug library consisted of approximately 1,126 small molecules. About 586 of the compounds were from Prestwick Chemical's (Illkirch, France) library, a unique collection of mostly off-patent small organic molecules, 90% being marketed drugs and 10% bioactive alkaloids or related substances. About 400 compounds were from the SPECS collection (available on the world wide web at.specs.net). 140 compounds generated in house by the LDDN were also included in the library. Compounds for the screening were stored as DMSO stocks. All drugs used for Confirmation Assay were purchased from Sigma (St. Louis, Mo.).
Approximately 2×10^4low passage SK-N-MC cells were seeded per well in 384-well cell culture plates for 24 hours. Compounds were then transferred into each well (final concentration 1 μM) by using a BioMekFX (Beckman Coulter) equipped with a 384-channel pipetting head. After 48 hours in cell culture incubator, cells were washed once in cold phosphate-buffered saline (PBS) by using BioTek ELx405 select CW plate washer and then lysed at room temperature (22-24° C.) with lysis buffer (Applied Biosystems) using the Cell-to-CT procedures according to the manufacturer's instructions (Applied Biosystems). After 5 min, lysis was terminated by incubation with stop solution (Applied Biosystems). 11 μL of each lysate were transferred to 384-well plates for RT in a total volume of 25 μl. 4 μL of RT reaction were then transferred to new 384-well plates for qPCR.
Using the Cell-to-CT kit (Applied Biosystems) we performed expression analysis directly from SK-N-MC neuroblastoma cells cultured in 384-well plates through in situ cDNA synthesis. In this miniaturized assay, high copy numbers of SNCA and of endogenous controls were detected as indicated by raw cycle threshold values of 25.11±0.02 (mean CT value±SEM) and 20.2±0.02 for SNCA and Ubiquitin C (UBC), respectively. Technical variation (using identical cDNA loaded in multiple wells) and biological variation (cDNA synthesized in situ in each of 384 wells of cultured SK-N-MC cells treated with DMSO) were low, with coefficients of variation of 1% and 5.2% respectively. At least ten DMSO-treated controls were included on each 384-well plate as negative external control and calibrator. An equal amount of cDNA derived from Universal Reference RNA was spotted on all plates as plate-to-plate control. Control reactions lacking template or reverse transcription were assayed for contamination with genomic DNA.
41 compounds were forwarded into the Replication Assay. For each compound eight wells were treated with drug and compared to eight wells treated with DMSO alone. The Cell-to-CT procedure was employed using two new reference genes, ribosomal protein L13 (RPL13) and glucuronidase beta (GUSB) (instead of UBC) to control for input RNA. […] 10 compounds met these criteria and were forwarded from the Replication into the Confirmation Assay.
The ten forwarded compounds were used in the Confirmation Assay. For each compound ten wells were treated with drug and compared to ten wells treated with DMSO alone. RNA was extracted using TRIzol® following the manufacturers protocol (Life Technologies). Freshly ordered compounds were used. […] Six compounds met these criteria and were forwarded from the Confirmation Assay to the ELISA Assay stage (see below).
Total RNA from flash-frozen mice brain tissue, rodent primary cells, human neuroblastoma cells and iPSC-derived neuronal cells was isolated using TRIzol® (Life Technologies) following the manufacturer's protocol. […]

[2] = tested on: α-synuclein protein; assay: α-synuclein protein in rat primary cortical neurons (ELISA); type: cell-based; details: metaproterenol 5 μM, clenbuterol 20 μM, salbutamol 10 μM, 72 hours
Experimental: Primary cortical cultures were generated from E18 Sprague-Dawley rat embryos. The cortical region was dissected out in Hank's Balanced Salt Solution buffered with Hepes and dissociated with 0.125% trypsin (Invitrogen) for 17 min at 37 ° C., followed by trituration. Dissociated cells were plated at a density of 5×10^5 cells/well or 2.5×10^5 cells/well in 12-well or 24-well plates, respectively precoated with poly-D lysine (100 μg/mL). The cells were cultured in Neurobasal medium with B-27 supplement (Invitrogen) and glutamax and gentamycin. Half of the medium was changed every 4 days. Cortical neurons were treated with β2AR agonists 10 days post plating. They were then harvested 48 hours post-treatment for mRNA extraction and 72 hours post-treatment for protein extraction.
Protein lysis buffer containing 320 mM sucrose, 5 mM NaF, 1 mM Na3VO4, 10 mM Tris (pH 7.4), 1 mM EGTA, and 1 mM EDTA was used for mice brain tissue lysis. 100 μL of cold extraction buffer was added to each sample and homogenized in a dounce homogenizer. […] Total protein concentrations were determined by BCA assay (Thermo Scientific) according to the manufacturer's instructions. Total α-synuclein was quantified using an α-synuclein-specific sandwich ELISA.
An α-synuclein-specific Meso Scale Discovery (MSD) ELISA assay (described in Ref. (11)) was utilized for endogenous α-synuclein protein measurement. […] After samples were emptied and plate washed 3 times with TBS-T, sulfo-tagged SOY1 mAb (detection Ab) (generated using Sulfo-Tag-NHS-Ester (MSD) diluted in blocking buffer (6.7 ng/μl), was added to the plate (30 μl volumes/well) and shaken for 1 hour at room temperature. Following 3 washes, MSD Read (2×, diluted in ultrapure water) buffer was added and the plates were immediately measured using a MSD Sector 2400 imager. For confirmatory studies, an second α-synuclein-specific ELISA implementation was used employing a different, extensively published anti-α-synuclein detection antibody (Syn-1 mAb) and a different anti-α-synuclein capture antibody (1H9, courtesy Dr. Selkoe).

| Compound | SNCA mRNA expression, dose dependence ([1]; SK-N-MC cells, indicated doses, 48 hours) | α-synuclein protein levels [2] | SNCA mRNA levels after 14 days ([1]; SK-N-MC cells, 10 μM, 14 days) | α-synuclein mRNA levels with increasing concentrations ([1]; SK-N-MC cells, 5, 10, 20 μM, four days) | relative SNCA mRNA abundance (with H3K27Ac blot) ([1]; SK-N-MC cells, vs vehicle-treated cells) | endogenous SNCA mRNA under β2AR antagonism ([1]; SK-N-MC cells) | effect of co-treatment on clenbuterol's SNCA expression-lowering effects ([1]; SK-N-MC cells, co-treatment with clenbuterol) |
| --- | --- | --- | --- | --- | --- | --- | --- |
| CC(C)(C)NCC(O)c1ccc(O)c(CO)c1 (centres unmarked) [Salbutamol, salbutamol] | lowered SNCA mRNA expression in a dose-dependent manner | significantly, but modestly, reduced | – | – | – | – | – |
| CC(C)(C)NCC(O)c1cc(Cl)c(N)c(Cl)c1 (centres unmarked) [clenbuterol] | – | significantly, but modestly, reduced | lowered | decrease in α-synuclein mRNA | decreased | – | – |
| CC(C)NCC(O)COc1cccc2ccccc12 (centres unmarked) [Propranolol, propranolol] | – | – | – | – | – | increased | blocked clenbuterol's SNCA expression-lowering effects |
